Assay results taken from patent US10441566B2, “Use of butylidenephthalide” (EVERFRONT BIOTECH INC., priority 2016, dated 2019).

Columns and labels:
Format in all cases: cell-based
α-SMA gene = experiment: Q-PCR expression of myofibroblast marker gene α-SMA in fBMFs; settings: fBMF-1 and fBMF-2, BP 0, 25, or 50 μg/mL, 48 hours, with the increment in concentration, FIG. 4
Text: (§1) Two groups of buccal mucosal fibroblasts obtained from normal oral buccal mucosa (hereinafter abbreviated as “BMF-1” and “BMF-2”; or collectively called “BMFs”), and two groups of fibrotic buccal mucosal fibroblasts obtained from fibrotic oral buccal mucosa (hereinafter abbreviated as “fBMF-1” and “fBMF-2”; or collectively called “fBMFs”) were respectively subjected to the following procedures: seeding the cells into a 24-well plate by a concentration of 2×10^4 cells/well to cultivate the cells to reach a 80% confluence, and then respectively treating the cells with different concentrations (0, 12.5, 25, 50, 100, or 200 μg/mL) of butylidenephthalide (BP) for 48 hours. […]
(§2) It is known that during the process of the fibrosis of tissue, the tissue cells would differentiate and become myofibroblasts, wherein the α-SMA gene, Col1a1 gene, and S100A4 gene are the maker genes of myofibroblasts. Thus, in this experiment, a quantitative real-time polymerase chain reaction (Q-PCR) was conducted to investigate whether butylidenephthalide (BP) can inhibit the expressions of α-SMA gene, Col1a1 gene, and S100A4 gene in oral submucosal tissue cells. […]

Snail gene = experiment: Q-PCR expression of EMT marker gene Snail in fBMFs; settings: fBMF-1 and fBMF-2, BP 0, 25, or 50 μg/mL, 48 hours, with the increment in concentration, FIG. 2
Text: as §1
(§3) It is known that during the process of epithelial-mesenchymal transition (EMT), the expressions of Twist gene, Snail gene, and ZEB1 gene in the cells will increase, and thus, these genes are known as the marker genes of EMT. In this experiment, quantitative real-time polymerase chain reaction (Q-PCR) was conducted to investigate whether butylidenephthalide (BP) can affect the expressions of Twist gene, Snail gene, and ZEB1 gene in oral submucosal tissue cells. […]

Col1a1 gene = experiment: Q-PCR expression of myofibroblast marker gene Col1a1 in fBMFs; settings: fBMF-1 and fBMF-2, BP 0, 25, or 50 μg/mL, 48 hours, with the increment in concentration, FIG. 4
Text: as §1, §2

[1] = system: buccal mucosal fibroblasts (BMFs; BMF-1, BMF-2); experiment: MTT cytotoxicity evaluation, relative viability of buccal mucosal fibroblasts; settings: BP at a concentration of no more than 50 μg/mL, 48 hours, FIG. 1
Text: as §1

Twist gene = experiment: Q-PCR expression of EMT marker gene Twist in fBMFs; settings: fBMF-1 and fBMF-2, BP 0, 25, or 50 μg/mL, 48 hours, with the increment in concentration, FIG. 2
Text: as §1, §3

[2] = system: fibrotic buccal mucosal fibroblasts (fBMFs); experiment: Transwell cell migration assay; settings: BP 0, 25, or 50 μg/mL, 24 hours migration, FIGS. 3A and 3B
Procedure: In this experiment, a transwell cell migration assay system (Transwell® system; purchased from Corning company, UK) and a polycarbonate membrane with a pore size of 8 μm (purchased from Corning company, UK) were used to further investigate whether butylidenephthalide (BP) can inhibit the abilities of oral submucosal tissue cells to crawl and invade.
First, the cell medium containing 10% FBS (fetal bovine serum) was added into the lower chamber, and an apparatus of polycarbonate membrane was placed on the bottom of a cell culture plate, i.e., upper chamber. On the other hand, the BMF-1, BMF-2, fBMF-1, and fBMF-2 provided by [Preparation example A] (2×10^4 cells/group) were evenly mixed with a 250 μL serum-free medium that is externally added with butylidenephthalide (BP) by a concentration of 0, 25, or 50 μg/mL. Then, the mixtures thus obtained were respectively added into the upper chambers. Thereafter, the whole transwell cell migration assay system was placed in an incubator to induce cell migration for 24 hours. […] Then, the polycarbonate membrane were fixed with 4% paraformaldehyde for 10 minutes and stained with 0.1% crystal violet. […] The cell numbers on the membrane were calculated into the relative cell migration ability (%) by using the results of BMFs not treated with butylidenephthalide (BP) as a basis.

S100A4 gene = experiment: Q-PCR expression of myofibroblast marker gene S100A4 in fBMFs; settings: fBMF-1 and fBMF-2, BP 0, 25, or 50 μg/mL, 48 hours, with the increment in concentration, FIG. 4
Text: as §1, §2

ZEB1 gene = experiment: Q-PCR expression of EMT marker gene ZEB1 in fBMFs; settings: fBMF-1 and fBMF-2, BP 0, 25, or 50 μg/mL, 48 hours, with the increment in concentration, FIG. 2
Text: as §1, §3

[3] = system: fibrotic buccal mucosal fibroblasts (fBMFs; fBMF-1, fBMF-2); experiment: MTT cytotoxicity evaluation, relative viability of fibrotic buccal mucosal fibroblasts; settings: BP at a concentration of no more than 50 μg/mL, 48 hours, FIG. 1
Text: as §1

[4] = system: fibrotic buccal mucosal fibroblasts (fBMFs); experiment: Collagen gel contraction assay; settings: fBMFs in collagen gel, BP 0, 25, or 50 μg/mL, 48 hours, with the increment in concentration, FIGS. 5A and 5B
Procedure: The BMF-1, BMF-2, fBMF-1, and fBMF-2 provided by [Preparation example A] were respectively dissolved in 0.5 mL of 2 mg/mL collagen solution (purchased from Sigma-Aldrich), and the mixtures thus obtained were moved into a 24-well plate. Then, the 24-well plate was placed in an incubator at […] and 5% CO2 for 2 hours to coagulate the collagen gels. The gels thus obtained were respectively called “BMFs group”, and “fBMFs group” gels. Thereafter, the coagulated gels were disengaged from the culture plate, and 0.5 mL of a medium containing different concentrations (0, 25, or 50 μg/mL) of butylidenephthalide (BP) was added thereinto to incubate with the gels for 48 hours. The contraction of gel in each group were observed and photographed. Finally, the relative gel area (%) of each “fBMFs group” was calculated by using the image-analyzed software, ImageJ (National Institutes of Health, USA) and using the results of “BMFs group” not being treated with butylidenephthalide (BP) as a basis.

CCCC=C1OC(=O)c2ccccc21 [butylidenephthalide]
expression of α-SMA gene (α-SMA gene): significantly decreased
expression of Snail gene (Snail gene): significantly decreased
expression of Col1a1 gene (Col1a1 gene): significantly decreased
growth (relative viability) of BMFs [1]: will not be affected
expression of Twist gene (Twist gene): significantly decreased
cells which migrated from the upper chamber to the lower chamber (relative migration ability) [2]: decrease with the increment in the concentration
expression of S100A4 gene (S100A4 gene): significantly decreased
expression of ZEB1 gene (ZEB1 gene): significantly decreased
growth (relative viability) of fBMFs [3]: will not be affected
gel contraction (relative gel area) [4]: significantly mitigate
